Reference: patent US20240174692A1, “PYRIMIDINE AROMATIC RING COMPOUNDS” (Medshine Discovery Inc., priority 2021, published 2024)
Counter-ions that a name gives are not always drawn. Each block holds one compound with its values, some of them ahead of it.

Tests used:
[1] = system: p-ERK in AGS cells; assay: Assay of p-ERK inhibition in AGS cells (HTRF); type: cell-based; conditions: Homo sapiens, 3 hours incubation
Description: 1) AGS cells were inoculated in a transparent 96-well cell culture plate, and each well contained 80 μL of cell suspension and 10000 cells. The cell plate was inoculated in a carbon dioxide incubator at 37° C. overnight; • 2) After completion of the incubation, the cell supernatant was discarded. 80 μL of medium containing 0.02% serum was added to each well. The cell plate was incubated in a carbon dioxide incubator at 37° C. overnight; • 3) 2 μL of the compound was weighed and added to 78 μL of the cell medium. After the mixture was mixed thoroughly, 20 μL of the solution of compound was weighed and added to the corresponding well of the cell plate. The cell plate was placed back to the carbon dioxide incubator and incubated for another 3 hours; • 4) After completion of the incubation, the cell supernatant was discarded. 50 μL of 1× cell lysate was added to each well. The mixture was incubated with shaking at room temperature for 30 minutes; • 5) Phospho-ERK1/2 Eu Cryptate antibody and Phospho-ERK1/2 d2 antibody were diluted 20-fold with detection buffer; • 6) 16 μL of cell lysate supernatant was weighed and added into each well of a new 384 white microwell plate, and then 2 μL of the diluted solution of Phospho-ERK1/2 Eu Cryptate antibody and 2 μL of the diluted solution of Phospho-ERK1/2 d2 antibody dilution were added. The mixture was incubated at room temperature for at least 4 hours; • 7) After completion of the incubation, HTRF was read with multi-label analyzer: excitation: 320 nm, emission: 615 nm, 665 nm; • 8). IC50 of the compounds to be assayed was calculated.

[2] = system: KRAS G12D mutated GP2D cells; assay: Assay of inhibition of GP2D cell proliferation (CellTiter-Glo 3D); type: cell-based; conditions: Homo sapiens, 120 h, 5 days
Description: The aim of this assay was to verify the inhibitory effect of the compounds of the present disclosure on the proliferation of KRAS G12D mutated GP2D human […] cancer cells.
Cell line GP2D, DMEM medium, and penicillin/streptomycin antibiotics were purchased from Wisent; fetal bovine serum was purchased from Biosera; and CellTiter-Glo® 3D Cell Viability Assay (3D cell viability chemiluminescence assay reagent) reagent was purchased from Promega.
GP2D cells were seeded in a 96-well U-bottom cell culture plate. Each well contained 80 μL of cell suspension containing 2000 GP2D cells. The cell plate was incubated overnight in a CO2 incubator. The compound to be assayed was serially diluted 5-fold with a pipette to the 8th concentration, i.e. diluted from 200 μM to 2.56 nM, to set up a double replicate well assay. 78 μL of medium was added to the middle plate, and then 2 μL per well of the gradient dilution compound was transferred to the middle plate according to the corresponding position. The mixture was mixed well and 20 μL per well was transferred to the cell plate. The concentration of compound transferred to the cell plate ranged from 1 μM to 0.0128 nM. The cell plate was incubated in a CO2 incubator for 5 days. At the end of the incubation of the plate with compounds added, 100 μL of cell viability chemiluminescence detection reagent per well was added to the plate and the plate was incubated at room temperature for 10 minutes to stabilize the luminescence signal. Reading was performed using a multi-label analyzer.
The raw data were converted into an inhibition rate by using an equation (Sample−Min)/(Max−Min)*100%. IC50 value can be obtained by curve fitting with four parameters (“log(inhibitor) vs. response—Variable slope” model in GraphPad Prism).

[3] = system: p-ERK in GP2D cells; assay: Assay of p-ERK inhibition in GP2D cells (HTRF); type: cell-based; conditions: Homo sapiens, 1 hour incubation
Description: 2. Assay Process • 1) GP2D cells were inoculated in a transparent 96-well cell culture plate, and each well contained 80 μL of cell suspension and 8000 cells. The cell plate was inoculated in a carbon dioxide incubator at 37° C. overnight; • 2) 2 μL of the compound was weighed and added to 78 μL of the cell medium. After the mixture was mixed thoroughly, 20 μL of the solution of compound was weighed and added to the corresponding well of the cell plate. The cell plate was placed back to the carbon dioxide incubator and incubated for another 1 hour; • 3) After completion of the incubation, the cell supernatant was discarded. 50 μL of 1× cell lysate was added to each well. The mixture was incubated with shaking at room temperature for 30 minutes; • 4) Phospho-ERK1/2 Eu Cryptate antibody and Phospho-ERK1/2 d2 antibody were diluted 20-fold with detection buffer; • 5) 16 μL of cell lysate supernatant was weighed and added into each well of a new 384 white microwell plate, and then 2 μL of the diluted solution of Phospho-ERK1/2 Eu Cryptate antibody and 2 μL of the diluted solution of Phospho-ERK1/2 d2 antibody dilution were added. The mixture was incubated at room temperature for at least 4 hours; • 6) After completion of the incubation, HTRF was read with multi-label analyzer: excitation: 320 nm, emission: 615 nm, 665 nm; • 7). IC50 of the compounds to be assayed was calculated.

[4] = molecular target: KRAS^G12D (Homo sapiens (Human), UniProt P01116, G12D); assay: Assay of the activity of inhibiting KRAS^G12D (TR-FRET, SOS/GTP nucleotide exchange); type: biochemical
Sequence of KRAS^G12D (P01116-2 other isoform, or with tags, fused parts or gaps G12D): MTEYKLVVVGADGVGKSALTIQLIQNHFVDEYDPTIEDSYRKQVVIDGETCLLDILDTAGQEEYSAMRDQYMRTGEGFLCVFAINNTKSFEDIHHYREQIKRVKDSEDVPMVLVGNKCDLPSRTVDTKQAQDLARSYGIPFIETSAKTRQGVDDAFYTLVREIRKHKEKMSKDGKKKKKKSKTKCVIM

[5] = Pharmacokinetic evaluation of compounds in mice; type: in vivo, CD-1 mice; conditions: CD-1 male mice
Description: Purpose of assay: To assay the pharmacokinetic data of the compounds in CD-1 mice in vivo.
(§1) Compounds were mixed with vehicle 5% DMSO/95% (10% HP-β-CD aqueous solution), and the mixture was vortexed and sonicated to give 0.2 mg/mL-0.3 mg/mL clear solutions. CD-1 male mice aged 7 to 10 weeks were selected, and the candidate compound solution was administered intravenously. Whole blood was collected for a certain period of time to prepare the plasma. The drug concentration was analyzed by LC-MS/MS method and pharmacokinetic parameters were calculated by Phoenix WinNonlin software (Pharsight, USA).
as §1, with “in water),” for “aqueous solution),”, “1.6 mg/mL to 4.0” for “0.2 mg/mL-0.3”, “orally administered.” for “administered intravenously.”, “prepare” for “prepare the”, “method,” for “method”

[6] = molecular target: KRAS^G12D binding to c-Raf (Homo sapiens (Human), UniProt P01116, G12D); assay: SOS1-mediated binding of KRAS^G12D to effector protein c-Raf (TR-FRET); type: biochemical
Sequence of KRAS^G12D binding to c-Raf (P01116-2 other isoform, or with tags, fused parts or gaps G12D): as above

[7] = system: plasma protein; assay: Plasma protein binding (PPB), equilibrium dialysis, M plasma; type: in vitro ADME, mouse; conditions: 2 μM, 4 hr dialysis
Description: (§2) Assay procedure: 995 μL of blank plasma of various genera were weighed, and 5 μL of assay compound working solution (400 μM) or warfarin working solution (400 μM) was added so that the final concentrations of the assay compound and warfarin in plasma sample were each 2 μM. The samples were mixed thoroughly. The final concentration of DMSO (the organic phase) was 0.5%. 50 μL of the plasma samples of the assay compound and warfarin were pipetted to a sample receiving plate (in triplicate), and the corresponding volume of corresponding blank plasma or buffer was added immediately, so that the final volume in each sample well was 100 μL, wherein the volume ratio of plasma:dialysis buffer was 1:1. 500 μL of stop solution was then added to these samples. These samples were used as T0 samples for determination of recovery and stability. […] All samples were subjected to protein precipitation, and then analyzed by LC/MS/MS. Bound rate and recovery rate of protein were calculated using the following formulae: % Unbound=100*F/T % Bound=100−% Unbound, % Recovery=100*(F+T)/T0 (wherein F is the peak area ratio of the compound in the dialysate after 4 h of dialysis; T is the peak area ratio of the compound in the plasma after 4 h of dialysis; T0 is the peak area ratio of the compound in the plasma sample at time zero).

[8] = system: plasma protein; assay: Plasma protein binding (PPB), equilibrium dialysis, D plasma; type: in vitro ADME, dog; conditions: 2 μM, 4 hr dialysis
Description: as §2

[9] = system: plasma protein; assay: Plasma protein binding (PPB), equilibrium dialysis, C plasma; type: in vitro ADME, monkey; conditions: 2 μM, 4 hr dialysis
Description: as §2

[10] = system: plasma protein; assay: Plasma protein binding (PPB), equilibrium dialysis, R plasma; type: in vitro ADME, rat; conditions: 2 μM, 4 hr dialysis
Description: as §2

[11] = system: plasma protein; assay: Plasma protein binding (PPB), equilibrium dialysis, H plasma; type: in vitro ADME, human; conditions: 2 μM, 4 hr dialysis
Description: as §2

SMILES: CCc1c(F)ccc2cc(O)cc(-c3ccc4c(N5CC6CCC(C5)N6)nc(OC[C@@]56CCCN5C[C@H](F)C6)nc4c3F)c12 [Compound 006 hydrochloride]
IC50 [1]: 67.1 nM
IC50 [2]: 2.04 nM

SMILES: Cc1cc(N)nc(-c2c(Cl)cc3c(N4CC5CCC(C4)N5)nc(OC[C@@]45CCCN4C[C@H](F)C5)nc3c2F)c1C(F)(F)F [Compound 018 trifluoroacetate]
IC50 [3]: 1.6 nM

SMILES: Nc1nc2c(-c3c(F)cc4c(N5CC6CCC(C5)N6)nc(OC[C@@]56CCCN5C[C@H](F)C6)nc4c3F)ccc(F)c2s1 [Compound 020 formate]
IC50 [4]: 6.6 nM

SMILES: Nc1nc2c(-c3c(Cl)cc4c(N5CC6CCC(C5)N6)nc(OC[C@@]56CCCN5C[C@H](F)C6)nc4c3F)ccc(F)c2s1 [Compound 004]
IC50 [4]: 0.5 nM
IC50 [1]: 31.4 nM

SMILES: C#Cc1c(F)ccc2cc(O)cc(-c3ccc4c(N5CC6CCC(C5)N6)nc(OC[C@@]56CCCN5C[C@H](F)C6)nc4c3F)c12 [Compound 010 hydrochloride]
AUCu ([5]; PO, 5.54 mg/kg, AUCu = AUC0-inf *Unbound PPB (Mouse)): 0.0025 µM·h
AUC(0-inf) ([5]; mouse, plasma, PO, 5.54 mg/kg): 0.125 µM·h
Cmax ([5]; mouse, plasma, PO, 5.54 mg/kg): 54 nM
bioavailability ([5]; mouse, plasma, PO, 5.54 mg/kg): 5.1%
half-life ([5]; mouse, plasma, PO, 5.54 mg/kg): 1.6 h
IC50 [3]: 0.055 nM
IC50 [2]: 3.6 nM

SMILES: C#Cc1c(F)ccc2cc(N)cc(-c3c(Cl)cc4c(N5CC6CCC(C5)N6)nc(OC[C@@]56CCCN5C[C@H](F)C6)nc4c3F)c12 (single isomer, unassigned) [Compound 016B]
IC50 [6]: 6.23 nM
IC50 [3]: 0.67 nM

SMILES: N#Cc1c(N)sc2c(F)ccc(-c3c(Cl)cc4c(N5CC6CCC(C5)N6)nc(OC[C@@]56CCCN5C[C@H](F)C6)nc4c3F)c12 [Compound 012 formate]
IC50 [3]: 0.71 nM
IC50 [2]: 0.94 nM

IC50 [4]: 0.4 nM
SMILES: Nc1nc2c(-c3c(F)cc4c(N5CC6CCC(C5)N6)nc(OC[C@@]56CCCN5C[C@H](F)C6)nc4c3Cl)ccc(F)c2s1 [Compound 007 hydrochloride]

SMILES: C#Cc1c(F)ccc2cc(O)cc(-c3ccc4c(N5CC6CCC(C5)N6)nc(OC[C@@]56CCCN5C[C@H](F)C6)nc4c3F)c12 [Compound 010]
AUC(0-inf) ([5]; mouse, plasma, IV, 1.03 mg/kg): 0.457 µM·h
C0 ([5]; mouse, plasma, IV, 1.03 mg/kg): 712 nM
Vd ([5]; mouse, plasma, IV, 1.03 mg/kg): 25 L/kg
clearance ([5]; mouse, plasma, IV, 1.03 mg/kg): 61.4 mL/min/kg
half-life ([5]; mouse, plasma, IV, 1.03 mg/kg): 8.1 h
Unbound PPB M [7]: 2.0%
Unbound PPB D [8]: 2.2%
Unbound PPB C [9]: 1.9%
Unbound PPB R [10]: 1.3%
Unbound PPB H [11]: 2.9%

SMILES: Oc1cc(-c2c(Cl)cc3c(N4CC5CCC(C4)N5)nc(OC[C@@]45CCCN4C[C@H](F)C5)nc3c2F)c2ccccc2c1 [Compound 001 formate]
IC50 [4]: 9.2 nM
IC50 [1]: 292 nM

SMILES: C#Cc1c(F)ccc2cc(N)cc(-c3c(F)cc4c(N5CC6C=CC(C5)N6)nc(OC[C@@]56CCCN5C[C@H](F)C6)nc4c3F)c12 [Compound 034]
IC50 [6]: 22.5 nM

SMILES: Oc1cc(-c2ccc3c(N4CC5CCC(C4)N5)nc(OC[C@@]45CCCN4C[C@H](F)C5)nc3c2F)c2c(F)c(F)ccc2c1 [Compound 011 hydrochloride]
IC50 [3]: 0.016 nM
IC50 [2]: 6.2 nM

SMILES: Oc1cc(-c2c(Cl)cc3c(N4CC5CCC(C4)N5)nc(OC[C@@]45CCCN4C[C@H](F)C5)nc3c2F)c2ccccc2c1 (single isomer, unassigned) [Compound 027 hydrochloride]
IC50 [4]: 38.6 nM

SMILES: Oc1cc(-c2ccc3c(N4CC5CCC(C4)N5)nc(OC[C@@]45CCCN4C[C@H](F)C5)nc3c2F)c2ccccc2c1 [Compound 005 hydrochloride]
IC50 [4]: 0.1 nM
IC50 [1]: 147 nM

IC50 [4]: 1.3 nM
SMILES: Oc1cc(-c2c(F)cc3c(N4CC5CCC(C4)N5)nc(OC[C@@]45CCCN4C[C@H](F)C5)nc3c2Cl)c2ccccc2c1 [Compound 008 hydrochloride]

SMILES: Cc1cc(N)nc(-c2ccc3c(N4CC5CCC(C4)N5)nc(OC[C@@]45CCCN4C[C@H](F)C5)nc3c2F)c1C(F)(F)F [Compound 019 hydrochloride]
IC50 [3]: 21.4 nM

SMILES: Cc1cc(N)c(F)c(-c2c(Cl)cc3c(N4CC5CCC(C4)N5)nc(OC[C@@]45CCCN4C[C@H](F)C5)nc3c2F)c1C(F)(F)F [Compound 022 formate]
IC50 [3]: 11.6 nM

SMILES: CCc1c(F)ccc2cc(O)cc(-c3ccc4c(N5CC6CCC(C5)N6)nc(OC[C@@]56CCCN5C[C@H](F)C6)nc4c3Cl)c12 [Compound 024 formate]
IC50 [3]: 4.4 nM
IC50 [2]: 16 nM

SMILES: Nc1cc(-c2ccc3c(N4CC5CCC(C4)N5)nc(OC[C@@]45CCCN4C[C@H](F)C5)nc3c2F)c2c(F)c(F)ccc2c1 [Compound 013 hydrochloride]
IC50 [3]: 0.88 nM
